Source: patent US11207331B2, “Agents, compositions and methods for enhancing neurological function” (University of Southern California, priority 2007, dated 2021)

Legend:
[1] = system: BrdU positive cells per hippocampus; assay: Survival of BrdU labeled cells in hippocampus after behavioural testing; type: in vivo, mouse
Method: Mice of each genotype and age received a subcutaneous (s.c.) injection of THP at a concentration of 10 mg/kg body weight (BW), an optimal dose of THP-[…] based on our previous studies. One hour after THP injection, mice were intraperitoneally (i.p.) injected with 100 mg/kg BW bromodeoxyuridine (BrdU). Two experimental paradigms were used: 1) THP treatment for behavior and cell survival assessment, in which animals received a single shot of THP/vehicle, followed by a 7-day neurogenesis and migration phase, followed by a 5-day trace-conditioning test followed 9 days later by a 1-day memory test, and scarified 21 days after a single THP injection at which time FACS analysis of BrdU positive cells was performed to assess cell survival; 2).
Hippocampus was dissected from the fixed hemispheres from cell survival assessment experiment using consistent anatomical landmarks as criteria for dissection as described in the literature. The rostral ⅓ of the hippocampus lobe was removed to avoid the subventricular zone and rostral migratory stream proliferative pools. The extracted hippocampi were homogenized using Next advance 24 sample homogenizer (Next Advance Inc., NY) for 3 minutes on speed 7. This procedure lyses the plasma lemma while preserves the nuclear envelope intact. The nuclei sample was collected into a regular 1.5 mL microcentrifuge tube by washing the beads and tube 4 times using 200 μL of PBS, and then centrifuged for 10 minutes at 10,000 rpm. Once all of the nuclei were collected in a pellet, the supernatant was discarded. The pellet was then re-suspended in 600 μL of PBS plus 0.5% Triton x-100. The number of nuclear density was estimated by counting the propidium iodide (PI), a fluorescent molecule stoichiometrically binds to DNA by intercalating between the bases with no sequence preference, positive particles. Aliquots of 25 μl were re-suspended in 200 μL of a 0.2 M solution of boric acid, pH 9.0, and heated for 1 h at 75° C. for epitope retrieval. After washed in PBS, the nuclei were incubated for 24 hours at 4° C. with primary mouse monoclonal anti-BrdU antibody (1:100, Abcam, Ab12219) and subsequently with FITC-conjugated goat anti-mouse IgG secondary antibody (1:100 in PBS; Vector Labs, FI-2001). The remainder of cell suspension is diluted to 500 μL and sent for flow cytometry assay using Beckman FC 500 System with CXP Software. Propidium iodide (PI) cells were first gated on a histogram; the expressing cells were visualized on a forward/side scatter plot. PI cells were ‘back-gated’ on the forward/side scatter plot to eliminate debris prior to analysis; this also eliminated auto fluorescence of the sample. Gates were always set using dissociates with cell aliquots which lack of the first antibody, but which were incubated with second antibody and processed alongside the experimental procedure. PI-labeled cells in a fixed volume were gated, and the number of cells showing BrdU signal was analyzed. Data were expressed as total positive cells per hippocampus.
To determine whether cognitive performance was correlated with survival of neuroprogenitor cells, hippocampi from behavioral test animals were analyzed for total number of BrdU positive cells using fluorescence activated cell sorting (FACS). As BrdU was administered one hour post THP injection at the start of the behavioral experiment, FACS analysis detected the total number of surviving BrdU+ cells and thus can be used as a marker of neural progenitor cells that survived and integrated into the hippocampal neuronal network. In 6-months-old vehicle treated non-Tg mice, BrdU+ cell survival was 2003.6±229.5.
We sought to determine whether cell survival was directly attributable to THP exposure or whether cell survival was dependent on the training experience. Thus, the relationship between survival of BrdU positive cells and cognitive performance on the memory phase of the behavioral testing was analyzed. […]

[2] = THP concentration in plasma and cortex by GC/MS; type: in vivo, mouse
Method: Cortices from brain hemisection of mice treated with THP or vehicle were collected at time of sacrifice for measurement of THP by GC/MS. Plasma was also collected at time of sacrifice. Three-month-old male non-Tg and 3×TgAD mice were subcutaneously injected with THP (1, 10, and 20 mg/kg BW) or vehicle (0.1% ethanol in PBS, n=4 in each group). The mice were sacrificed 24 hours later. THP concentration in plasma and brain were measured by GC/MS. […] In the 3×TgAD mouse cortex, a 10 mg/kg dose of THP results in a cortical level of 20 ng/g protein 24 hrs post injection.

[3] = system: three month old male 3×TgAD mouse hippocampus; assay: Flow cytometry of BrdU labeled cells 24 hours after subcutaneous or transdermal THP; type: in vivo
Method: Flow cytometry assay detected total BrdU labeled cells 24 hours following THP administration via (A) subcutaneous and (B) transdermal routes. […] BrdU (100 mg/kg) was administered by intraperitoneal injection one hour after THP administration. Transdermal gel THP dose-response for 5, 10, and 50 mg/kg (FIG. 21B) was compared to 0 mg/kg control vehicle (negative control) and subcutaneous injection of 10 mg/kg (positive control) (FIG. 21A). […] Immunoblots of proliferating cell nuclear antigen (PCNA), an S-phase marker and cyclin dependent kinase 1 (CDK1/cdc2), an M-phase marker, are shown in FIGS. 21C and 21D, respectively. Hippocampus protein expression of PCNA and CDK1/cdc2 was normalized to β-tubulin loading control and compared relative to the vehicle control by immunoblot. […] The data were analyzed by one way ANOVA followed by a t test (two samples assuming equal variance) vs. vehicle. Data are presented as the mean±SEM, n=5, *=P<0.05, and **=P<0.01.

[4] = system: human neural progenitor cells (hNPC); assay: Proliferation and phenotype of human neural progenitor cells (hNPC); type: cell-based
Method: To determine the impact of THP on hNPC cell proliferation, a dose response (pM-nM) experiment was performed. Results of these analyses indicate:
To determine the impact of THP on the stability of hNPC phenotype, hNPCs were double labeled with BrdU, Tuj1 and MAP2, or GFAP.
To determine whether the same mechanisms of THP-induced proliferation in rodent derived NPCs could be generalized to humans, we determined the requirement of the GABAAR by antagonizing the GABAAR with bicuculline followed by assessment of THP-induced hNPC cell proliferation.

SVZ from 3×TgAD mice = assay: Unbiased stereology of BrdU-positive cells in subventricular zone; type: in vivo, mouse; conditions: 10 mg/kg

For CC(=O)[C@H]1CC[C@H]2[C@@H]3CC[C@H]4C[C@H](O)CC[C@]4(C)[C@H]3CC[C@]12C [THP, 3α-hydroxy-5α-pregnan-20-one], the “THP-induced proliferation (FACS BrdU) after 23 days of learning and memory” value ([1]; 3×TgAD mice, 3 and 6 month, declined with age thereafter) was “Significant THP-induced proliferation”, the “fold promotion of BrdU+ cell survival” value ([1]; 3×TgAD mice, 6-months-old) was “greater than 2 fold” and the “surviving BrdU+ cells per hippocampus (FACS)” value ([1]; 3×TgAD mice, 6-months-old, 21 days after 10 mg/kg) was 1372.5±326.2. The “surviving BrdU+ cells per hippocampus (FACS)” value ([1]; 3×TgAD mice, 9-months-old) was 899.3±313.1, the BrdU cells ([1]; 3×TgAD mice, survived BrdU cells) was 1088 and the “number of surviving cells generated 20 days prior to sacrifice” value ([1]; 3×TgAD mice, unbiased stereological analysis) was “near doubling in the number of surviving cells”. The “BrdU+ cell survival vs vehicle” value ([1]; 12-months-old non-tg and 3×TgAD mice) was “no significant effect”, the “BrdU positive cells, treatment vs vehicle” value ([1]; Non-Tg mice, 3, 6, 9, 12 month) was “did not show statistical significance between treatment and vehicle groups” and the “BrdU+ cell number 21 days after THP administration” value ([1]; all ages) was “an increase in BrdU+ cell number was observed at all ages”. For the same molecule, the “surviving BrdU+ cells per hippocampus (FACS)” value ([1]; non-Tg mice, 6-months-old, 21 days after 10 mg/kg) was 2772.2±534.9, the “surviving BrdU+ cells per hippocampus (FACS)” value ([1]; non-Tg mice, 9-months-old) was 2255.3±662.4 and the “dose dependence of THP in plasma and cortex” value ([2]; 1, 10 and 20 mg/kg BW s.c., 24 hours) was “linear dose dependent manner”. For the same molecule, the “cortical level of THP” value ([2]; 3×TgAD mouse cortex, 10 mg/kg s.c., 24 hrs post injection) was 20 ng/g protein, the “THP level in 3×TgAD relative to nontransgenic treated mice” value ([2]; plasma and cortex, 24 hours) was “consistently lower level of THP in both plasma and cortex” and the “BrdU cell numbers vs vehicle” value ([3]; 10 mg/kg dose) was “significantly increases BrdU cell numbers”. For the same molecule, the “optimal dose to significantly increase BrdU cell numbers” value ([3]; subcutaneous and transdermal routes) was 10 mg/kg, the “efficacy as neurogenic factor compared with bFGF+heparin” value [4] was “exceeded that of bFGF+heparin” and the “proliferative efficacy compared with positive control bFGF” value ([4]; 250 nM THP) was “as efficacious a proliferative factor as the positive control, bFGF”. The “concentration at which proliferation was first evident” value ([4]; dose response) was 1 nM, the “concentration at which proliferative efficacy diminished” value ([4]; dose response) was 1000 nM and the “concentration of maximal proliferation” value ([4]; dose response, sustained at 250 and 500 nM) was 100 nM. For the same molecule, the “increase in human neural progenitor cell proliferation” value ([4]; doses within an achievable therapeutic range) was 50%, the “number of BrdU positive hNPCs vs vehicle” value ([4]; double labeling) was “significantly increased” and the “proportion of Tuj1, MAP2 or GFAP cells vs vehicle” value ([4]; double labeling) was “not changing”. For the same molecule, the “time at which hNPC proliferation reached maximum” value ([4]; time course) was 6 h, the “time at which hNPC proliferation was evident” value ([4]; time course) was 3 h and the “increase in BrdU-positive cells relative to untreated group” value (SVZ from 3×TgAD mice) was 58%.
